These results are taken from ChEMBL document CHEMBL1152027, “The prooligonucleotide approach. I: Esterase-mediated reversibility of dithymidine S-alkyl-phosphorothiolates to dithymidine phosphorothioates” (Bioorg Med Chem Lett, 1995).

Each structure is given as a SMILES string.

A short description of data set [1]: Half-life in the CEM cell extracts. It is filed as ADME, CCRF-CEM. To be noted: human.
The nature of data set [2]: Half-life in the culture medium (RPMI 1640+10% fetal calf serum FCS). It is filed as ADME, cell-free, Bos taurus. As to conditions: cattle.

In the case of `CC(=O)SCSP(=O)(OCc1oc(-n2cc(C)c(=O)[nH]c2=O)cc1O)Oc1cc(-n2cc(C)c(=O)[nH]c2=O)oc1CO` (stereo unspecified), the results for the half-life in data set [1] and in data set [2] were under 0.0833 h and 1 h, respectively.
Take `Cc1cn(-c2cc(O)c(COP(=O)(Oc3cc(-n4cc(C)c(=O)[nH]c4=O)oc3CO)SCOC(=O)C(C)(C)C)o2)c(=O)[nH]c1=O` (stereo unspecified): the half-life (as a rule, the time needed for the level to fall by half in the phase considered) in data set [1] amounted to 0.667 h; in data set [2], 6 h.
Turning to `CC(=O)SCCSP(=O)(OCc1oc(-n2cc(C)c(=O)[nH]c2=O)cc1O)Oc1cc(-n2cc(C)c(=O)[nH]c2=O)oc1CO` (stereo unspecified), the half-life in data set [1] was under 0.0833 h; in data set [2], 7 h.
